From patent publication US9212182B2, “Bicyclic sulfonamide compounds as sodium channel inhibitors” (AMGEN INC., priority 2013, dated 2015) come the findings set out here.

Where two headings read alike, the source gives them in different places.

The target of the assay is Nav 1.7 (Homo sapiens (Human), UniProt Q15858). The assay is described as follows: in-vitro Nav 1.7 PX (IC50). Type of assay: cell-based.
Setting [1] is: in-vitro Nav 1.7 PX data (PatchXpress).

Nav 1.7, sequence (Q15858 whole entry): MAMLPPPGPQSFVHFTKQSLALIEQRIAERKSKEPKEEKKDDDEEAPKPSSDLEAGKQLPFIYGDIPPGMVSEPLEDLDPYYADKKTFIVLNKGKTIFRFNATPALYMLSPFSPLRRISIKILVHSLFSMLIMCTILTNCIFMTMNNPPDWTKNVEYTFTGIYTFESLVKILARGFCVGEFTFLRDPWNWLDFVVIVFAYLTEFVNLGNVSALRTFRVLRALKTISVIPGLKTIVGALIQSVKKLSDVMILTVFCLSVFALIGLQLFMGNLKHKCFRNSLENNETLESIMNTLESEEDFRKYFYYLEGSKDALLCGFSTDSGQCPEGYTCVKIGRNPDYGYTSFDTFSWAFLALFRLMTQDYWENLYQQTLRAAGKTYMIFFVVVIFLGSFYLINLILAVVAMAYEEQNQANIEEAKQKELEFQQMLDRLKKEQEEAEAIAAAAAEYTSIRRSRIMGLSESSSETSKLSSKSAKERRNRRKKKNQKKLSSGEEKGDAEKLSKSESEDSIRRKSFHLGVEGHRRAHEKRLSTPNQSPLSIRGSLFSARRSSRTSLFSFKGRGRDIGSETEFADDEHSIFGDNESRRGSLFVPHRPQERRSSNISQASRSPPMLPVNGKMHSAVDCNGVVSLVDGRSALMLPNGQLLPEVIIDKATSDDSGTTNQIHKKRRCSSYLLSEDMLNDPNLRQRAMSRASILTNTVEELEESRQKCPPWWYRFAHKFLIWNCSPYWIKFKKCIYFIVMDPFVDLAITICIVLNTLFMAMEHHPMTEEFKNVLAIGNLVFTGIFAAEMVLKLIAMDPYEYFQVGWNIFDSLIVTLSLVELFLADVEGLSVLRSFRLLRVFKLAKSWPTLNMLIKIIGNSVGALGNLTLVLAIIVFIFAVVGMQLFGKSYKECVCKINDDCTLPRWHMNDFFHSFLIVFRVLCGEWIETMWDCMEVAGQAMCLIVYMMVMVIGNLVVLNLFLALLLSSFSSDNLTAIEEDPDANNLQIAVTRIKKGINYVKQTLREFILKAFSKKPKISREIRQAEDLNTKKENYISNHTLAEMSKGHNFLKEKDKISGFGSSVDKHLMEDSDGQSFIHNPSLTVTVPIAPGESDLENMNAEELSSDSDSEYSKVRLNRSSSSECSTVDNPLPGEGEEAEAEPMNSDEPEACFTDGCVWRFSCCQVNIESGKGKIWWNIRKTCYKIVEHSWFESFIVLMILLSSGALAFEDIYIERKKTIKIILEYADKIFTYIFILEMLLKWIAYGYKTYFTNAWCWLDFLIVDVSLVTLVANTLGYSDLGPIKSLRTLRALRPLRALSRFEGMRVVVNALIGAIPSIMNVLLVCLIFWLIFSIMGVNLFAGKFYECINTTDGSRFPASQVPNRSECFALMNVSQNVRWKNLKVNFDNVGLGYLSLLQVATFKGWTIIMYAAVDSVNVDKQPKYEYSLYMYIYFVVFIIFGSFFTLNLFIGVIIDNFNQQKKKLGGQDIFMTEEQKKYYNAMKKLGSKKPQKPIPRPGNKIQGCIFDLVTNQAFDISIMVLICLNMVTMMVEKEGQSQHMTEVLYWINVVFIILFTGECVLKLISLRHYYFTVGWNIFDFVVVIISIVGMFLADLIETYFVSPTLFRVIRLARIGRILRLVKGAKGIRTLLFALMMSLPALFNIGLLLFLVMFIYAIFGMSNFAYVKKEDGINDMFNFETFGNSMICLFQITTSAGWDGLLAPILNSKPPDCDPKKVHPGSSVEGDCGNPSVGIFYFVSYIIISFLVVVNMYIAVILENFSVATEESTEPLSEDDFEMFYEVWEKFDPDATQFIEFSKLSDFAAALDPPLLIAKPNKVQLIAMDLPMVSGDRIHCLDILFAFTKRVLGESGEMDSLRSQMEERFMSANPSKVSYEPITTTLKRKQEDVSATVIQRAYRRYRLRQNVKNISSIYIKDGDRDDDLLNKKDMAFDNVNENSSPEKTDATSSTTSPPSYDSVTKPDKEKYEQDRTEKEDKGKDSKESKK

Under setting [1], `O=c1ccc2cc(S(=O)(=O)Nc3nncs3)ccc2n1-c1ccc(-c2cc(F)cc(F)c2)cc1C1CC1` [Example 1047, 1-(3-cyclopropyl-3′,5′-difluoro-4-biphenylyl)-2-oxo-N-1,3,4-thiadiazol-2-yl-1,2-dihydro-6-quinolinesulfonamide] showed an IC50 of 6500 nM. In turn, `COc1cc(-c2ccc(F)cc2)c(F)cc1-n1c(=O)ccc2cc(S(=O)(=O)Nc3ncco3)ccc21` [Example 771, 1-(2,4′-difluoro-5-methoxy-4-biphenylyl)-N-1,3-oxazol-2-yl-2-oxo-1,2-dihydro-6-quinolinesulfonamide] came in with an IC50 (in-vitro Nav 1.7 PX data) of 53 nM. For `COc1nc(N(C)C2CCCC2)c(Cl)cc1-n1c(=O)ccc2cc(S(=O)(=O)Nc3ccon3)ccc21` [Example 1231, 1-(5-chloro-6-(cyclopentyl(methyl)amino)-2-methoxy-3-pyridinyl)-N-3-isoxazolyl-2-oxo-1,2-dihydro-6-quinolinesulfonamide], inhibition was half-maximal at 115 nM (IC50). The same measure, in the same setting: in the case of `COc1cc(-c2cc(C)cc(Cl)c2)ccc1-n1c(=O)ccc2cc(S(=O)(=O)Nc3ccon3)ccc21` (atropisomer, axis not shown; (M)) [Example 586, (M)-1-(3′-chloro-3-methoxy-5′-methyl-4-biphenylyl)-N-3-isoxazolyl-2-oxo-1,2-dihydro-6-quinolinesulfonamide] it was > 1000 nM. For the setting “in-vitro Nav 1.7 PX data”, `COc1cc(F)cc(-c2cc(OC)c(-n3c(=O)ccc4cc(S(=O)(=O)Nc5ncccn5)ccc43)cc2C)c1` [Example 957, 1-(3′-fluoro-5,5′-dimethoxy-2-methyl-4-biphenylyl)-2-oxo-N-2-pyrimidinyl-1,2-dihydro-6-quinolinesulfonamide] came in with an IC50 of 23 nM.

`COc1cc(-c2ccc(F)c(C)c2)c(F)cc1-n1c(=O)cnc2cc(S(=O)(=O)Nc3ccon3)ccc21` [Example 1194, 1-(2,4′-difluoro-5-methoxy-3′-methyl-4-biphenylyl)-N-3-isoxazolyl-2-oxo-1,2-dihydro-6-quinoxalinesulfonamide] gave a half-maximal inhibitory concentration (IC50) of 56 nM. For `COc1cc(-c2ccc(F)c(Cl)c2)c(F)cc1-n1c(=O)ccc2cc(S(=O)(=O)Nc3ccon3)ccc21` (atropisomer, axis not shown; (P)) [Example 365, (P)-1-(3′-chloro-2,4′-difluoro-5-methoxy-4-biphenylyl)-N-3-isoxazolyl-2-oxo-1,2-dihydro-6-quinolinesulfonamide], under “in-vitro PatchXpress (PX)”, the IC50 was 9 nM. The compound `COc1cc(-c2cc(F)cc(Cl)c2)c(C)cc1-n1c(=O)ccc2cc(S(=O)(=O)Nc3ccon3)ccc21` (atropisomer, axis not shown; (M)) [Example 418, (M)-1-(3′-chloro-5′-fluoro-5-methoxy-2-methyl-4-biphenylyl)-N-3-isoxazolyl-2-oxo-1,2-dihydro-6-quinolinesulfonamide] yielded an IC50 of 309 nM. Consider `COc1cc(-c2cc(C)cc(Cl)c2)c(F)cc1-n1c(=O)ccc2cc(S(=O)(=O)Nc3ccon3)ccc21` (atropisomer, axis not shown; (P)) [Example 506, (P)-1-(3′-chloro-2-fluoro-5-methoxy-5′-methyl-4-biphenylyl)-N-3-isoxazolyl-2-oxo-1,2-dihydro-6-quinolinesulfonamide], for which the IC50 (in-vitro PatchXpress (PX)) amounted to 8 nM. In turn, `COc1cc(-c2cccc(OC)c2F)ccc1-n1c(=O)ccc2cc(S(=O)(=O)Nc3ccon3)ccc21` [Example 785, 1-(2′-fluoro-3,3′-dimethoxy-4-biphenylyl)-N-3-isoxazolyl-2-oxo-1,2-dihydro-6-quinolinesulfonamide] had an IC50 (in-vitro Nav 1.7 PX data) of 66 nM. Regarding `COc1cc(-c2cc(F)cc(C(F)F)c2)ccc1-n1c(=O)ccc2cc(S(=O)(=O)Nc3ccon3)ccc21` [Example 1068, 1-(3′-(difluoromethyl)-5′-fluoro-3-methoxy-4-biphenylyl)-N-3-isoxazolyl-2-oxo-1,2-dihydro-6-quinolinesulfonamide], under setting [1], the IC50 amounted to 75 nM. For the setting “in-vitro Nav 1.7 PX data”, `COc1cc(-c2ccc(Cl)c(C#N)c2)c(F)cc1-n1c(=O)ccc2cc(S(=O)(=O)Nc3ncco3)ccc21` [Example 890, 1-(4′-chloro-3′-cyano-2-fluoro-5-methoxy-4-biphenylyl)-N-1,3-oxazol-2-yl-2-oxo-1,2-dihydro-6-quinolinesulfonamide] registered an IC50 of 84 nM. On the same count and under the same terms, in the case of `COc1ccc(-c2cc(F)cc(Cl)c2)cc1-n1c(=O)ccc2cc(S(=O)(=O)Nc3ccon3)ccc21` [Example 858, 1-(3′-chloro-5′-fluoro-4-methoxy-3-biphenylyl)-N-3-isoxazolyl-2-oxo-1,2-dihydro-6-quinolinesulfonamide] it was 25 nM; in that of `COc1cc(-c2ccc(C)c(F)c2)c(F)cc1-n1c(=O)ccc2cc(S(=O)(=O)Nc3cc(C)ncn3)ccc21` [Example 1129, 1-(2,3′-difluoro-5-methoxy-4′-methyl-4-biphenylyl)-N-(6-methyl-4-pyrimidinyl)-2-oxo-1,2-dihydro-6-quinolinesulfonamide], 80 nM; in that of `COc1cc(-c2cncc(C(F)(F)F)c2)c(F)cc1-n1c(=O)ccc2cc(S(=O)(=O)Nc3ccon3)ccc21` [Example 721, 1-(5-fluoro-2-methoxy-4-(5-(trifluoromethyl)-3-pyridinyl)phenyl)-N-3-isoxazolyl-2-oxo-1,2-dihydro-6-quinolinesulfonamide], 32 nM. `COc1cc(-c2cccc(C)c2C)ccc1-n1c(=O)ccc2cc(S(=O)(=O)Nc3ccon3)ccc21` [Example 1056, N-3-isoxazolyl-1-(3-methoxy-2′,3′-dimethyl-4-biphenylyl)-2-oxo-1,2-dihydro-6-quinolinesulfonamide]: the IC50 under setting [1] was 25 nM. In other words, the double-digit nanomolar range. Compound `COc1cc(-c2ccc(C(F)(F)F)cc2)c(F)cc1-n1c(=O)ccc2cc(S(=O)(=O)Nc3ncco3)ccc21` (atropisomer, axis not shown; (P)) [Example 636, (P)-1-(2-fluoro-5-methoxy-4′-(trifluoromethyl)-4-biphenylyl)-N-1,3-oxazol-2-yl-2-oxo-1,2-dihydro-6-quinolinesulfonamide] came in with an IC50 of 31 nM. `COc1cc(-c2ccc(Cl)c(C#N)c2)c(F)cc1-n1c(=O)ccc2cc(S(=O)(=O)Nc3cc(C)ncn3)ccc21` [Example 898, 1-(4′-chloro-3′-cyano-2-fluoro-5-methoxy-4-biphenylyl)-N-(6-methyl-4-pyrimidinyl)-2-oxo-1,2-dihydro-6-quinolinesulfonamide] displayed an IC50 (in-vitro Nav 1.7 PX data) of 44 nM. With `COc1cc(-c2cccc(F)c2)c(C)cc1-n1c(=O)cc(C)c2cc(S(=O)(=O)Nc3ccon3)ccc21` (atropisomer, axis not shown; (P)) [Example 568, (P)-1-(3′-fluoro-5-methoxy-2-methyl-4-biphenylyl)-N-3-isoxazolyl-4-methyl-2-oxo-1,2-dihydro-6-quinolinesulfonamide], half-maximal inhibition (IC50) required 92 nM.

In turn, `COc1cc(C[C@@H]2C[C@@H]3CC[C@H]2O3)c(F)cc1-n1c(=O)ccc2cc(S(=O)(=O)Nc3ccon3)ccc21` [Example 1087, 1-(5-fluoro-2-methoxy-4-((1R,2R,4S)-7-oxabicyclo[2.2.1]hept-2-ylmethyl)phenyl)-N-3-isoxazolyl-2-oxo-1,2-dihydro-6-quinolinesulfonamide, 1-(5-fluoro-2-methoxy-4-((1S,2S,4R)-7-oxabicyclo[2.2.1]hept-2-ylmethyl)phenyl)-N-3-isoxazolyl-2-oxo-1,2-dihydro-6-quinolinesulfonamide] gave an IC50 (in-vitro Nav 1.7 PX data) of 1730 nM. On the same count and under the same terms, the figure for `COc1cc(-c2cccc(C(F)(F)F)c2)ccc1-n1c(=O)ccc2cc(S(=O)(=O)Nc3ncon3)ccc21` [Example 919, 1-(3-methoxy-3′-(trifluoromethyl)-4-biphenylyl)-N-1,2,4-oxadiazol-3-yl-2-oxo-1,2-dihydro-6-quinolinesulfonamide] is 22 nM; for `COc1cc(-c2cccc(C)c2)ccc1-n1c(=O)ccc2cc(S(=O)(=O)Nc3ccnc(C)n3)ccc21` [Example 1132, 1-(3-methoxy-3′-methyl-4-biphenylyl)-N-(2-methyl-4-pyrimidinyl)-2-oxo-1,2-dihydro-6-quinolinesulfonamide] it is 192 nM; for `COc1cc(C[C@H]2CCCCO2)c(F)cc1-n1c(=O)ccc2cc(S(=O)(=O)Nc3ccon3)ccc21` [Example 1133, 1-(5-fluoro-2-methoxy-4-((2R)-tetrahydro-2H-pyran-2-ylmethyl)phenyl)-N-3-isoxazolyl-2-oxo-1,2-dihydro-6-quinolinesulfonamide, 1-(5-fluoro-2-methoxy-4-((2S)-tetrahydro-2H-pyran-2-ylmethyl)phenyl)-N-3-isoxazolyl-2-oxo-1,2-dihydro-6-quinolinesulfonamide] it is 2260 nM. `COc1cc(-c2cc(F)cc(Cl)c2)c(Cl)cc1-n1c(=O)ccc2cc(S(=O)(=O)Nc3ccon3)ccc21` (atropisomer, axis not shown; (M)) [Example 462, (M)-1-(2,3′-dichloro-5′-fluoro-5-methoxy-[1,1′-biphenyl]-4-yl)-N-(isoxazol-3-yl)-2-oxo-1,2-dihydroquinoline-6-sulfonamide] gave an IC50 of 193 nM. `COc1cc(C)ccc1-c1cc(OC)c(-n2c(=O)ccc3cc(S(=O)(=O)Nc4ccon4)ccc32)cc1F` [Example 793, 1-(2-fluoro-2′,5-dimethoxy-4′-methyl-4-biphenylyl)-N-3-isoxazolyl-2-oxo-1,2-dihydro-6-quinolinesulfonamide]: half-maximal inhibition (in-vitro Nav 1.7 PX data) (IC50) required 48 nM. On the same count and under the same terms, the figure for `COc1cc(-c2cccc(C(F)(F)F)c2)ccc1-n1c(=O)ccc2cc(S(=O)(=O)Nc3cc(C)cnn3)ccc21` [Example 1137, 1-(3-methoxy-3′-(trifluoromethyl)-4-biphenylyl)-N-(5-methyl-3-pyridazinyl)-2-oxo-1,2-dihydro-6-quinolinesulfonamide] is 36 nM. `CCOc1cc(-c2cccc(F)c2)c(F)cc1-n1c(=O)ccc2cc(S(=O)(=O)Nc3ccon3)ccc21` (atropisomer, axis not shown; (M)) [Example 389, (M)-1-(5-ethoxy-2,3′-difluoro-[1,1′-biphenyl]-4-yl)-N-(isoxazol-3-yl)-2-oxo-1,2-dihydroquinoline-6-sulfonamide] displayed an IC50 of 239 nM. The same measure, in the same setting: the figure for `COc1cc(-c2cccc(F)c2)c(Cl)cc1-n1c(=O)ccc2cc(S(=O)(=O)Nc3ccncn3)ccc21` (atropisomer, axis not shown; (M)) [Example 466, (M)-1-(2-chloro-3′-fluoro-5-methoxy-[1,1′-biphenyl]-4-yl)-2-oxo-N-(pyrimidin-4-yl)-1,2-dihydroquinoline-6-sulfonamide] is 4320 nM.

As a reminder, the IC50 is the midpoint of a concentration-inhibition curve. A high value points to weaker potency.
